Measured values as given in patent US20200377885A1, “COMPOSITIONS AND METHODS FOR THE GENERATION OF NEURONS AND USES THEREOF” (Washington University, priority 2017, published 2020).
“Also recorded” adds a separate entry of the source.

Legend:
[1] = system: GFP-74Q-expressing HEF cells; test: Inclusion body formation in GFP-74Q-expressing HEFs after proteasome inhibition; assay type: cell-based, human; conditions: 5 μM, 24 hours later, vs DMSO
Source text: Because the findings contrasted with previous studies that report the lack of mHTT aggregates in iPSC-derived neurons from HD patients, it was decided to directly test if altering the cellular state of adult HD fibroblasts to an embryonic-like stage, a process that effectively erases aging markers, would affect the aggregation propensity of mHTT in HD-MSNs. HD-iPSCs were derived from adult HD fibroblasts and these stem cells were differentiated back into fibroblasts using a method for generating human embryonic fibroblasts (HEFs) (see e.g., FIG. 26A and FIG. 27A). […] HD.40-HEFs expressed fibroblast markers vimentin and fibronectin (see e.g., FIG. 26B). […] Upon direct conversion of HD.40-HEFs to MSNs (human embryonic MSNs, heMSNs), little to no aggregated mHTT was detectable in HD-heMSNs at PID 21 (see e.g., FIG. FIGS. 24B and 24C). […] It was then decided to investigate differences in mHTT aggregation propensity to elucidate the contribution of aging to protein aggregation in HD. […] To directly test if proteasome activity was preventing the formation of inclusions in HEFs, GFP-74Q-expressing HEF cells were treated with the proteasome inhibitor lactacystin, and assessed the presence of inclusions 24 hours later. […]

[2] = system: HD-MSNs; test: Spontaneous cell death of HD-MSNs by SYTOX green dead-cell staining; assay type: cell-based, human; conditions: 0.5 μM added at 30 days post induction, assessed at PID 35, vs DMSO
Experimental: (§1) In addition, Hoechst 33342 solution (Thermo Fisher Scientific) was added as a counterstain to label all nuclei at a final concentration of 1 μg/ml in culture media. Samples were incubated for at least 10 minutes in 37° C. Images were captured using a Leica DMI 400B inverted microscope with Leica Application Suite (LAS) Advanced Fluorescence. Three images were taken from random areas of each coverslip for at least three biological replicates per experiment. Quantification performed by counting number of SYTOX-positive cells over total Hoechst signal.
(§2) The ATM-Kinase inhibitor KU-60019 was obtained from Abcam (ab144817), solubilized in DMSO and directly added to the cell culture media for a final concentration of 0.5 μM at 30 days post miR-9/9*-124 induction, then cell death was assessed by SYTOX at PID 35. Controls were treated with the same volume of DMSO but no drug. At day 35, cells treated with DMSO or KU-60019 also were treated with 1 mM of H2O2 for three hours. SYTOX green/Hoechst stain was added as already described and imaged for scoring.

[3] = system: HD-MSNs; test: H2O2-induced oxidative stress cell death of HD-MSNs (SYTOX green/Hoechst); assay type: cell-based, human; conditions: 0.5 μM, 1 mM H2O2 for three hours at day 35, vs DMSO
Experimental: as §1, §2

[4] = target: ATM (Homo sapiens, UniProt Q13315); conditions: earlier findings; cited from earlier work
ATM, sequence (Q13315 whole entry, species assumed): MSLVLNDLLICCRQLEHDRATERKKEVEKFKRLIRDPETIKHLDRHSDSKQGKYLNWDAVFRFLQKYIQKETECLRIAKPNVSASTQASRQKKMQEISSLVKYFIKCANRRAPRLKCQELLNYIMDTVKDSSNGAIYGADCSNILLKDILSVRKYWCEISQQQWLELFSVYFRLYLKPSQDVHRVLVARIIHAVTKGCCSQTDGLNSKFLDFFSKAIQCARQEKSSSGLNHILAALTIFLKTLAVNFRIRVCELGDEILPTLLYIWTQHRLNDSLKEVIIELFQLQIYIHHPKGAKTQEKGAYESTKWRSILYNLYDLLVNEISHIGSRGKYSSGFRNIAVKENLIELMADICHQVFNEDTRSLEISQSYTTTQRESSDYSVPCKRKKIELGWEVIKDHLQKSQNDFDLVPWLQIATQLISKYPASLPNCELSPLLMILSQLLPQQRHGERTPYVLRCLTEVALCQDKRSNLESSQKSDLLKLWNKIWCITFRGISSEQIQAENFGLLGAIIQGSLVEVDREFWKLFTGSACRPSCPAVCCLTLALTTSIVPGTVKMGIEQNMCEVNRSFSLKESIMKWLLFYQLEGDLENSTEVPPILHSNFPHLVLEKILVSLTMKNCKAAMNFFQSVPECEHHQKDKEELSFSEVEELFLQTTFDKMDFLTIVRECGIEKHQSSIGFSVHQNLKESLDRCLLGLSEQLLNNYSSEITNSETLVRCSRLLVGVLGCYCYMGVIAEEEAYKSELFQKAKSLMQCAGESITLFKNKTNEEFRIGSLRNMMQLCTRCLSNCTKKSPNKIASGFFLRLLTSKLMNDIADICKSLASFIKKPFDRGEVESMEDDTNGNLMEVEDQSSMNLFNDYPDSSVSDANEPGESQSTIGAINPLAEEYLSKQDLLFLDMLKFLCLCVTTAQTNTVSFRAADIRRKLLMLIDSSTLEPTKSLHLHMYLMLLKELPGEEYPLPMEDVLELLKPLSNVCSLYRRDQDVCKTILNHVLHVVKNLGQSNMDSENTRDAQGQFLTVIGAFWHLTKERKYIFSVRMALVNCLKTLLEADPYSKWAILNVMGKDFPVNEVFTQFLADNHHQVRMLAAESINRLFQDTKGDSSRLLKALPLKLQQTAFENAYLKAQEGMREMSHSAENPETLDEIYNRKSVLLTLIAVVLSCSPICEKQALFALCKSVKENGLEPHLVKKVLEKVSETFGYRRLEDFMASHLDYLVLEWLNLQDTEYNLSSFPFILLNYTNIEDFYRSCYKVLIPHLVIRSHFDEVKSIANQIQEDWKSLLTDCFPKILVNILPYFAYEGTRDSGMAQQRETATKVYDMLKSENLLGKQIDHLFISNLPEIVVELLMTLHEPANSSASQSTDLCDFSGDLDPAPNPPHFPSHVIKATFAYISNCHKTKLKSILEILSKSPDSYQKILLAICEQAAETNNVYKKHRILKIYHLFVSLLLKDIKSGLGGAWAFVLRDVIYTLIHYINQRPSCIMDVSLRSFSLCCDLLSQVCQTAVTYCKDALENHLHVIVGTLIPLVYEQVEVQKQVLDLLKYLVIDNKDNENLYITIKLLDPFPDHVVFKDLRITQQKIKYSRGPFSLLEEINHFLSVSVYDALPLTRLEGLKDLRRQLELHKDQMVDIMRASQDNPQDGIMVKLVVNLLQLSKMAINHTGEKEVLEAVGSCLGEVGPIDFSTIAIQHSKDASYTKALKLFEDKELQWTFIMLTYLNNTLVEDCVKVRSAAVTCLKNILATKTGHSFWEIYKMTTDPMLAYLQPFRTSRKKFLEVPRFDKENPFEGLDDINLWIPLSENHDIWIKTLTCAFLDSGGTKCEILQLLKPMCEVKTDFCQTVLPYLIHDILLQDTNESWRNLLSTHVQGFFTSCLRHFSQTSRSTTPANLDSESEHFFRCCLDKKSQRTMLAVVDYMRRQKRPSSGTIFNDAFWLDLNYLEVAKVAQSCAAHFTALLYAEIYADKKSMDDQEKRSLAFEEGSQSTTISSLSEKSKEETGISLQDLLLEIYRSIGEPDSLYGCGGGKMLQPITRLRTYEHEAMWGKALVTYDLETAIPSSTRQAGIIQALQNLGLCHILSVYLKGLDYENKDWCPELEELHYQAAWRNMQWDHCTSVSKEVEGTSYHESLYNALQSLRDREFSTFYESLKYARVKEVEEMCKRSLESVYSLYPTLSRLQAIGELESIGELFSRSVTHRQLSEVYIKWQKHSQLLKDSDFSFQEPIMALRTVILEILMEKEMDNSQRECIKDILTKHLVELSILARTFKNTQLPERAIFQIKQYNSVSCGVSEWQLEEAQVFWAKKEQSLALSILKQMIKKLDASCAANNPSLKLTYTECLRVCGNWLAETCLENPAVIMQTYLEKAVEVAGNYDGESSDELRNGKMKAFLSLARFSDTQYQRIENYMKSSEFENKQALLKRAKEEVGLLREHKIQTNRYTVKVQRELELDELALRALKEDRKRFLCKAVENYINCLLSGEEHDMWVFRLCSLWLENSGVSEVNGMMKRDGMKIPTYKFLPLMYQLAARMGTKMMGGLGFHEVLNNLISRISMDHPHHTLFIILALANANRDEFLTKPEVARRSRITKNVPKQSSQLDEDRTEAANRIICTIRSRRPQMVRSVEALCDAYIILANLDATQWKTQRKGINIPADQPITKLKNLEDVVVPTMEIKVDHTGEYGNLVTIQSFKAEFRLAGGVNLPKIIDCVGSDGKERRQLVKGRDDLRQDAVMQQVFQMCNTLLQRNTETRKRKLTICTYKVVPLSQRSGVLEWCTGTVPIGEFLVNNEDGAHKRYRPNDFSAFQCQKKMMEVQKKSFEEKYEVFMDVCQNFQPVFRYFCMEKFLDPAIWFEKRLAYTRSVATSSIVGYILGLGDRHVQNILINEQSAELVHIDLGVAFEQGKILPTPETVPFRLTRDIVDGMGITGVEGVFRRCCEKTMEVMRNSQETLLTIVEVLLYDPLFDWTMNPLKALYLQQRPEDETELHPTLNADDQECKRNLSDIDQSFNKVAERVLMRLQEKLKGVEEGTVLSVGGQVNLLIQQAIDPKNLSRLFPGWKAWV

Structure (SMILES) | number of cells bearing inclusions (IBs) [1] | number of cells bearing inclusions (IBs) ([1]; listed as Lactacystin) | levels of spontaneous cell death (SYTOX-positive cells over Hoechst) [2] | levels of stress-induced cell death (H2O2-induced oxidative stress) [3] | mHTT-induced cell death [4]
CC(=O)N[C@@H](CSC(=O)[C@]1([C@@H](O)C(C)C)NC(=O)[C@H](C)[C@@H]1O)C(=O)O [lactacystin] | induces IBs | significantly increased | – | – | –
C[C@@H]1CN(CC(=O)Nc2ccc3c(c2)Cc2cccc(-c4cc(=O)cc(N5CCOCC5)o4)c2S3)C[C@H](C)O1 [KU60019] | – | – | significantly reduced; also recorded: reduces cell death levels | significantly reduced; also recorded: protects HD-MSNs against H2O2-induced oxidative stress | reduce mHTT-induced cell death
